# Source: patent US20030134348A1, “Recombinant bioluminescent bacteria Escherichia coli DH5@/pSodaLux (EBHJ1) [KCTC 10098BP] for monitoring oxidative stress” (priority 2001, published 2003)
# Legend:
# [1] = tested on: Escherichia coli DH5@/pSodaLux (EBHJ1) [KCTC 10098BP]; format: cell-based; conditions: for bioluminescence in dependence on concentration of the toxic material: sodA promoter::LuxCDABE reporter, 96-well luminometer, 30° C., 0-2048 ppm, FIGS. 3-6
# Experimental: The bioluminescent bacteria Escherichia coli DH5@/pSodaLux (EBHJ1) were cultured in a shaking incubator of 30° C. at 250 rpm, in the LB medium [DIFCO, USA] containing 25 μg/ml of kanamycin [Sigma Co., USA] until the OD reaches 0.8 at 600 nm. Then, 2 ml of the culture was cultured for about 4 hr in 100 ml of LB medium. […] The bioluminescence was measured at 30° C. with a 96-well luminometer [DYNEX Technologies, USA].
# The bioluminescence is measured in BL (bioluminescence intensity). Increase in bioluminescence can be determined by comparing the bioluminescence when toxic material was injected (sample bioluminescence) and that when no toxic material was injected (control bioluminescence). The RBL (relative bioluminescence) is calculated by the following Equation 1. [formula]
# [2] = tested on: Escherichia coli DH5@/pSodaLux (EBHJ1) [KCTC 10098BP]; assay: Growth inhibition of the recombinant bioluminescent bacteria; format: cell-based; conditions: around 50 ppm
Compound,bioluminescence ([1]; around 50 ppm),bioluminescence in dependence on concentration of the toxic material [1],growth inhibition [2]
C[n+]1ccc(-c2cc[n+](C)cc2)cc1 [paraquat dichloride],substantial bioluminescence,proportionally increasing bioluminescence,little growth inhibition
[Cl][Cd][Cl] [cadmium chloride],–,the bioluminescence increased with the concentration,–
OO [hydrogen peroxide],–,proportionally increasing bioluminescence,–
